Test [1] concerns the target Cathepsin S (Mouse, UniProt O70370). The experiment in a line: Enzyme Inhibition Assay. Here is the method:
Prior to the addition of substrate, different concentrations of the inhibitor ranging from 100 uM to 0.2 nM were preincubated for 15 min with enzyme to allow the establishment of the enzyme-inhibitor complex. […] The percent inhibition of the reaction was calculated from a control reaction containing only vehicle. IC50 curves were generated by fitting percent inhibition values to a four parameter logistic model (SOFTMAX PRO, Molecular Devices).

Test [2] addresses Cathepsin S (Homo sapiens, UniProt P25774). The test can be described thus: Enzyme Inhibition Assay and Whole Cell Enzyme Occupancy Assay. To be noted: pH 6.5; 22 °C. Here is the method: (§1) Prior to the addition of substrate, different concentrations of the inhibitor ranging from 100 uM to 0.2 nM were preincubated for 15 min with enzyme to allow the establishment of the enzyme-inhibitor complex. The proteolytic cleavage of N-acyl aminocoumarins by cathepsins was conducted in 96-well plate format and the plate read using a Spectramax (Molecular Devices) plate reader. The excitation wavelength was 355 nm and the emission wavelength was 460 nm for peptidyl-AMC substrates. The percent inhibition of the reaction was calculated from a control reaction containing only vehicle. IC50 curves were generated by fitting percent inhibition values to a four parameter logistic model (SOFTMAX PRO, Molecular Devices). EC50/IC50 values were obtained from whole cell enzyme occupancy assays for human cathepsins B (in HepG2 cells), L (in HepG2 cells), and S (in Ramos cells).

A further test has as its target Procathepsin L (Homo sapiens, UniProt P07711). The description is as above. The settings on record: pH 5.5; 22 °C. Here is the method:
as §1

In a further test the target is T1, Cathepsin K (Oryctolagus cuniculus, UniProt P43236).
T1 sequence (P43236 whole entry): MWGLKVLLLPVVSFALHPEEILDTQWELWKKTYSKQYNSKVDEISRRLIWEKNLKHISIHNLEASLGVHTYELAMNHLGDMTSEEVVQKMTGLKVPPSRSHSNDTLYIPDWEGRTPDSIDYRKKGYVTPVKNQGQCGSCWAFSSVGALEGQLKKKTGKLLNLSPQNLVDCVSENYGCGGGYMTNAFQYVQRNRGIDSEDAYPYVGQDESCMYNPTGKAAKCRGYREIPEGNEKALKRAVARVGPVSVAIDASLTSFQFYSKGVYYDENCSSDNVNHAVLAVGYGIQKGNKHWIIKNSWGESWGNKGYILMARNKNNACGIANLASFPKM
The test can be described thus: Enzyme Inhibition Assay and Bone Resorption Assay. The settings on record: pH 5.5; 22 °C. The method, then: Prior to the addition of substrate, different concentrations of the inhibitor ranging from 100 uM to 0.2 nM were preincubated for 15 min with enzyme to allow the establishment of the enzyme-inhibitor complex. […] The percent inhibition of the reaction was calculated from a control reaction containing only vehicle. IC50 curves were generated by fitting percent inhibition values to a four parameter logistic model (SOFTMAX PRO, Molecular Devices). EC50/IC50 values were obtained from functional rabbit bone resorption assay.

Cathepsin S (Mouse, UniProt O70370), sequence (O70370 whole entry): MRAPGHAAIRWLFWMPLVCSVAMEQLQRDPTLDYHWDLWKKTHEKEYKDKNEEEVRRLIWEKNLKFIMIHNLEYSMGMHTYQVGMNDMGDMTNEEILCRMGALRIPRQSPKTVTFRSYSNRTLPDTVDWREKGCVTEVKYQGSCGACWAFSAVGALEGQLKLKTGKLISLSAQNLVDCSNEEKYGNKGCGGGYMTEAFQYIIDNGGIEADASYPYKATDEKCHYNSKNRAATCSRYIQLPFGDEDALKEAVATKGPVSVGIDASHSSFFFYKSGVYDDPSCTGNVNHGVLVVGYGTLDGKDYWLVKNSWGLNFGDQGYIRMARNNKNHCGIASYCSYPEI
Procathepsin L, sequence (P07711 whole entry): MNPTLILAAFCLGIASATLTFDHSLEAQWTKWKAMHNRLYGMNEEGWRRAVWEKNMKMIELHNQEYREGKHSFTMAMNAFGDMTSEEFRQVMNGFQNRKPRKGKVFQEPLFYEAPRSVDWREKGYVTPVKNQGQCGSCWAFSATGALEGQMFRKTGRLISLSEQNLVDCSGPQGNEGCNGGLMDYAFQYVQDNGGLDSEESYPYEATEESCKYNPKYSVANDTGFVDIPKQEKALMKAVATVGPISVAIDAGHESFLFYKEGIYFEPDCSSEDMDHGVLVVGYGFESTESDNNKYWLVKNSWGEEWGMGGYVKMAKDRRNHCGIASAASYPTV
Cathepsin S (Homo sapiens, UniProt P25774), sequence (P25774 whole entry): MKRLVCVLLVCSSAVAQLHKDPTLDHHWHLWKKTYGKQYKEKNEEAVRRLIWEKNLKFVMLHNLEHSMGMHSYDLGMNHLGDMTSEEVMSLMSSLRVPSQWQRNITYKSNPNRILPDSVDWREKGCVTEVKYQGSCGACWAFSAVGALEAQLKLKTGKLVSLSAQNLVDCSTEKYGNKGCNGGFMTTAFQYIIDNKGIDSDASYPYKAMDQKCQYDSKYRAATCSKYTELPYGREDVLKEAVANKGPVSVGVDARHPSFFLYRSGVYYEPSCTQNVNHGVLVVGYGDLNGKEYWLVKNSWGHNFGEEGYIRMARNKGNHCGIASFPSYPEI

The EC50 is the concentration needed to bring the measured effect to its halfway point. Low values mean higher potency in that assay, high ones lower potency in that assay. In the case of `CC(C)C[C@@H](C(=O)NCC#N)c1cccc(-c2ccc(N3CCNCC3)cc2)c1` [(2R)-N-(cyanomethyl)-4-methyl-2-{3-[4-(piperazin-1-yl)phenyl]phenyl}pentanamide], the EC50 worked out at 740 nM at Cathepsin S [1], 1340 nM on Cathepsin S [2], 320 nM at Procathepsin L and 149 nM on Cathepsin K.

With `CN1CCN(c2nc(-c3ccc(C(=O)NC4(C(=O)NCC(F)(F)F)CCCCC4)cc3)cs2)CC1` [4-[2-(4-methylpiperazin-1-yl)-1,3-thiazol-4-yl]-N-{1-[(2,2,2-trifluoroethyl)carbamoyl]cyclohexyl}benzamide], the EC50 on Cathepsin S [1] was more than 10000 nM.

With `CCCN1CCN(c2ccc(C(=O)NC3(C(=O)NCC#N)CCCCC3)cc2)CC1` [N-[1-(cyanomethylcarbamoyl)cyclohexyl]-4-(4-propylpiperazin-1-yl)], the EC50 was 480 nM on Cathepsin S [1], 2900 nM at Cathepsin S [2] and 48 nM at Procathepsin L.

Turning to `N#CCNC(=O)[C@H](CC1CCCCC1)NC(=O)c1ccccc1` [(2S)-N-(cyanomethyl)-3-cyclohexyl-2-(phenylformamido)propanamide], the EC50 at Cathepsin S [1] was 40 nM; at Cathepsin S [2] it was 10 nM; at Procathepsin L, 230 nM.

With `CN1CCN(c2nc(-c3ccc(C(=O)NC4(C(=O)NCC#N)CCCCC4)cc3)cs2)CC1` [N-{1-[(cyanomethyl)carbamoyl]cyclohexyl}-4-[2-(4-methylpiperazin-1-yl)-1,3-thiazol-4-yl]benzamide], the EC50 at Cathepsin S [1] was determined as 318 nM; on Cathepsin S [2], 790 nM; on Procathepsin L it was 340 nM; at Cathepsin K, 5 nM.

For `N#CCNC(=O)C1(NC(=O)c2ccc(N3CCOCC3)cc2)CCCCC1` [N-{1-[(cyanomethyl)carbamoyl]cyclohexyl}-4-(morpholin-4-yl)benzamide], the EC50 on Cathepsin S [1] is 8500 nM; at Cathepsin S [2] it was 4800 nM; on Procathepsin L it was more than 10000 nM; at Cathepsin K, 580 nM.

In the case of `N#CCNC(=O)C1(NC(=O)c2ccc(-c3csc(N4CCOCC4)n3)cc2)CCCCC1` [N-{1-[(cyanomethyl)carbamoyl]cyclohexyl}-4-[2-(morpholin-4-yl)-1,3-thiazol-4-yl]benzamide], the EC50 on Cathepsin S [1] was 6700 nM; at Cathepsin S [2], more than 10000 nM; at Procathepsin L, more than 10000 nM; on Cathepsin K, 41 nM.

These data come from BindingDB's records for doi:10.1021/jm0504961 (Merck Frosst Centre For Therapeutic Research, 2005).
